Common to all, as to test: growth of human tumour cells (NCI), 48 h
Assay [1] concerns KM12 colon.
In assay [2] the test system is DU-145 prostate.
Assay [3] concerns HL-60(TB) leukemia.
Assay [4] concerns RXF 393 renal.
In assay [5] the test system is ACHN renal.
Assay [6] deals with UO-31 renal.
Assay [7] concerns OVCAR-5 ovarian.
Assay [8] relates to HOP-92 NSCLC.
Assay [9] concerns T-47D breast.
The subject of assay [10] is MDA-N.
In assay [11] the test system is SN12C renal.
Assay [12] has as its system A549 NSCLC.
Assay [13] has as its system PC-3 prostate.
The test system of assay [14] is SR leukemia.
Assay [15] has as its system HCT-116 colon.

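Grown in 96-well plates, cells were treated for 48 hours with each compound at five concentrations. Insufficient inhibition: endpoint recorded as highest concentration tested. TGI: concentration producing complete growth inhibition.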

With `O=C(Cn1c(C(=O)/C=C/c2ccc(Cl)c(Cl)c2)nc2ccccc21)c1ccccc1`, the TGI was 56.5 µM in assay [1]; greater than 100 µM in assay [2]; 36.7 µM in assay [3]; 57.2 µM in assay [4]; 93.5 µM in assay [5]; 56 µM in [6]. In addition, the TGI in assay [7] is 50.2 µM; in assay [8] it was 96.1 µM; in [9], greater than 100 µM; in assay [10], 47.2 µM; in assay [11], 34.4 µM; in assay [12], 59.8 µM. The values for the TGI in assay [13], in assay [14] and in [15] were greater than 100 µM, 80 µM and 35.1 µM, respectively.
`CN(C)Cc1cc(C(=O)/C=C/c2ccc(Cl)cc2Cl)cc(CN(C)C)c1O`: the TGI in assay [1] came out at 4.51 µM; in [2], 16.7 µM; in [3], 8.67 µM; in assay [4], 10.7 µM; in assay [5], 10.9 µM; in assay [6] it was 6.01 µM. Moreover, the TGI is 28.7 µM in assay [7]; 8.55 µM in assay [8]; 22.1 µM in [9]; 5.92 µM in assay [10]; 6.96 µM in assay [11]; 11.9 µM in assay [12]. In addition, the figures for the TGI in assay [13], in assay [14] and in assay [15] were 6.19 µM, greater than 100 µM and 11.7 µM, respectively.
With `COc1ccc(-c2c(C#N)c(N)nc(Sc3ccccc3N)c2C#N)cc1`, the TGI in assay [1] is greater than 100 µM; in assay [2] it was greater than 100 µM; in assay [3], greater than 100 µM; in assay [4], 30.1 µM; in assay [5], 51.4 µM; in [6], greater than 100 µM. Also, the TGI in assay [7] is greater than 100 µM; in assay [8], 27.2 µM; in [9], 17.5 µM; in assay [10] it was greater than 100 µM; in assay [11], greater than 100 µM; in [12], greater than 100 µM. Further, the TGI in assay [13] is greater than 55.6 µM; in assay [14], greater than 100 µM; in assay [15], greater than 100 µM.
Consider `COc1cccc(-c2nc(N)c(C#N)c3c2CCS(=O)(=O)c2ccc(C)cc2-3)c1`, for which the TGI in assay [1] was greater than 58.4 µM; in assay [2] it was greater than 100 µM; in assay [3] it was 37.5 µM; in [5], greater than 100 µM; in [6], greater than 100 µM; in assay [7] it was greater than 100 µM. For the same compound, the TGI in [8] is greater than 100 µM; in assay [9], greater than 100 µM; in assay [10], greater than 42.6 µM; in assay [11] it was greater than 100 µM; in [12] it was greater than 100 µM; in assay [13], greater than 100 µM. Further, the values for the TGI in assay [14] and in assay [15] were 5.14 µM and greater than 100 µM, respectively.
As to `N#Cc1ccc(N=NN2CCCC2)cc1`, the TGI in [1], in [2], in [3], in [4], in assay [5] and in assay [6] was greater than 100 µM each time. The TGI in assay [7], in assay [8], in assay [9], in [10], in [11] and in assay [13] was greater than 100 µM throughout. For the same compound, the TGI in assay [14] and in assay [15] was greater than 100 µM in each case.
As to `C1=C(c2ccccc2)NC2=N[C@H]3CCCC[C@@H]3N2C1c1ccccc1` (stereo partly specified), the TGI is 22.9 µM in assay [1]; 29.6 µM in assay [2]; 42.2 µM in assay [3]; 26.6 µM in [5]; 24.8 µM in [6]; 26.3 µM in assay [7]. Besides, the TGI in assay [8] was 25.2 µM; in [9], 35.5 µM; in assay [10], 29 µM; in [13], 23.9 µM; in assay [14] it was 39.3 µM; in assay [15], 20.2 µM.
As to `O=C(N/N=C\c1ccc([N+](=O)[O-])cc1)Nc1ccc2ccccc2c1`, the TGI in [1] is 67.3 µM; in assay [2], greater than 100 µM; in assay [4] it was greater than 100 µM; in assay [5] it was greater than 100 µM; in assay [6] it was greater than 100 µM; in [7], greater than 100 µM. Moreover, the TGI in assay [8] was 54.4 µM; in [9], greater than 100 µM; in assay [10], greater than 100 µM; in assay [11], greater than 100 µM; in assay [12], greater than 100 µM; in assay [13], greater than 100 µM. The TGI in assay [14] was greater than 100 µM; in assay [15] it was 63.3 µM.
For `COc1ccc(/C=N/n2c(Cc3ccccc3)n[nH]c2=O)c(OC)c1`, the TGI is greater than 100 µM in assay [1]; greater than 100 µM in assay [2]; greater than 63.2 µM in assay [4]; greater than 56.5 µM in assay [5]; greater than 63.1 µM in [6]; greater than 100 µM in assay [7]. Moreover, the TGI in [8] is greater than 75 µM; in assay [9], greater than 100 µM; in [10], greater than 100 µM; in assay [11], greater than 100 µM; in assay [12] it was greater than 58.4 µM; in assay [13] it was greater than 100 µM. The TGI in [14] is greater than 100 µM; in assay [15] it was greater than 55.1 µM.
On to `c1ccc(CSCCC(SCc2ccccc2)SCc2ccccc2)cc1`, for which the TGI in [1], in assay [2], in assay [3], in assay [4], in assay [5] and in assay [6] was greater than 10 µM each time. Further, the TGI in assay [8], in [9], in assay [10], in assay [11], in assay [12] and in assay [13] was greater than 10 µM throughout. The TGI in assay [14] and in assay [15] was greater than 10 µM in each case.
As to `CC1(C)COC(c2cccc(C(=O)c3ccccc3)c2)=N1`, the TGI is greater than 100 µM in assay [1]; greater than 100 µM in [2]; 58 µM in assay [3]; greater than 100 µM in assay [5]; greater than 100 µM in [6]; greater than 100 µM in assay [7]. Further, the TGI in assay [8], in assay [9], in assay [10], in assay [11], in assay [12] and in assay [13] was greater than 100 µM each time. For the same compound, the TGI in [14] and in assay [15] was greater than 100 µM in each case.

Values taken from PubChem BioAssay (NCI).
